Data from ChEMBL document CHEMBL1128555, “Derivatives of 5-[[1-(4'-carboxybenzyl)imidazolyl]methylidene]hydantoins as orally active angiotensin II receptor antagonists” (J Med Chem, 1995).
Activity calls are given as the source filed them. The calls are words filed in the database; no cut-off is given here.

Experiments:
[1] = target: Angiotensin II receptor (AT-1) type-1 (Rattus norvegicus) (UniProt P29089+P25095); assay: Antihypertensive activity in renal hypertensive rats (RHR) at 30 mg/Kg dose after oral administration; format: functional, organism-based
[2] = target: T1, Angiotensin II receptor (AT-1) type-1 (Rattus norvegicus, UniProt P29089+P25095); assay: Binding affinity expressed as IC50 to the Angiotensin II receptor, type 1, from rat liver membrane
T1 sequence (P29089 whole entry): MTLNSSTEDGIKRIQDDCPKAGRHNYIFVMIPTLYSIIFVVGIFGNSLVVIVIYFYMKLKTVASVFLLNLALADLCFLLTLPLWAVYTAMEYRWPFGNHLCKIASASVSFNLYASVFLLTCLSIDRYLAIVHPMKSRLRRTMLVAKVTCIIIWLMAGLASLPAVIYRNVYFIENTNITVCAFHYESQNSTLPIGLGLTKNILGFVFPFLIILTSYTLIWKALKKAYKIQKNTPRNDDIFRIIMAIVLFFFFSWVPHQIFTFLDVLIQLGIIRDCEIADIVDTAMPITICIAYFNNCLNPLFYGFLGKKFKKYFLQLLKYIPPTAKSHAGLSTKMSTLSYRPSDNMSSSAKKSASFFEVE
T1 sequence (P25095 whole entry): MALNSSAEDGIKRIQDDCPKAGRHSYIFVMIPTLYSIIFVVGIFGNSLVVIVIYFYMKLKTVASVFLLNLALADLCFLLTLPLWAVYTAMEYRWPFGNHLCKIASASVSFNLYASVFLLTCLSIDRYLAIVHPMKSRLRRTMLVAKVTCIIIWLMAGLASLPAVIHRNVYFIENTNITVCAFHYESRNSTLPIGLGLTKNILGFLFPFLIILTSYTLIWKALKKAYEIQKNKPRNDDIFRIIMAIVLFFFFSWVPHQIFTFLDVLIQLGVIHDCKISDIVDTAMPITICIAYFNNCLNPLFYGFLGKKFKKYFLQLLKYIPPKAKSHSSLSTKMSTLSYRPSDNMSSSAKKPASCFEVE

[3] = tested on: Rattus norvegicus; assay: The compound was tested for antihypertensive activity in Renal Hypertensive Rats(RHR) at 10 mg/Kg dose after oral administration; format: functional
[4] = target: Angiotensin II receptor type-1 (Oryctolagus cuniculus) (UniProt P34976); assay: Inhibition of angiotensin II induced contraction in rabbit aortic ring, activity is expressed as IC50
[5] = tested on: Monkey; assay: Minimum blood pressure was determined at 10 mg/kg in salt-deplete Normotensive Monkeys; format: functional, Cercopithecidae
[6] = tested on: Monkey; assay: Baseline blood pressure was determined at 10 mg/kg in salt-deplete Normotensive Monkeys; format: functional, Cercopithecidae
[7] = tested on: Monkey; assay: blood pressure determined at 10 mg/kg in salt-deplete Normotensive Monkeys; format: functional, Cercopithecidae
[8] = tested on: Monkey; assay: Blood pressure determined at 10 mg/kg in salt-deplete Normotensive Monkeys; format: functional, Cercopithecidae
[9] = tested on: Rattus norvegicus; assay: The compound was tested for antihypertensive activity in Renal Hypertensive Rats(RHR) at 30 mg/Kg dose after oral administration; inactive; format: functional, organism-based
[10] = tested on: Rattus norvegicus; assay: The compound was tested for antihypertensive activity in Renal Hypertensive Rats(RHR) at following doses after oral administration. of 10 mg/kg; format: functional

Sequence of Angiotensin II receptor type-1 (Oryctolagus cuniculus) (P34976 whole entry, looked up): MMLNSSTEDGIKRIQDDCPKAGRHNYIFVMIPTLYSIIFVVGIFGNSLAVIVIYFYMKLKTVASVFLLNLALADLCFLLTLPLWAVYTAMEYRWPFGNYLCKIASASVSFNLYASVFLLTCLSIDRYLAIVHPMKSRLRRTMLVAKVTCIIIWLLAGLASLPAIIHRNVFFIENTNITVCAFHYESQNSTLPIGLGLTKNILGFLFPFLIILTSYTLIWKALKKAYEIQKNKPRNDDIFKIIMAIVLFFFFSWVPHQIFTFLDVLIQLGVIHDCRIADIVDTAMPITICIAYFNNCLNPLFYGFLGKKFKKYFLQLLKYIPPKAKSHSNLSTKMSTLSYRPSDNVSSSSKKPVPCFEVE

| Compound | Maximum blood pressure change [1] [%] | IC50 [2] [nM] | IC50 [4] [nM] | other results |
| --- | --- | --- | --- | --- |
| CCCCc1ncc(/C=C2/C(=O)N(CCCC)C(=O)N2Cc2csc(N)n2)n1Cc1ccc(C(=O)OC)cc1 | -37 | 1.2 | 290 | Max [3]: -39% |
| CCCCc1ncc(/C=C2/C(=O)N(CCCC)C(=O)N2Cc2csc(C)n2)n1Cc1ccc(C(=O)OC)cc1 | -40 | 3.8 | 350 | Blood pressure [5]: 74 mmHg; Max [3]: -25%; Blood pressure [6]: 101 mmHg; Blood pressure [7]: 88 mmHg |
| CCCCc1ncc(/C=C2/C(=O)N(CCCC)C(=O)N2Cc2csc(C)n2)n1Cc1ccc(C(=O)O)cc1Cl | – | – | – | Blood pressure [8]: 85 mmHg; Blood pressure [5]: 80 mmHg; Blood pressure [6]: 100 mmHg |
| CCCCc1ncc(/C=C2\C(=O)NC(=O)N2CCCC)n1Cc1ccc(C(=O)O)cc1 | – | – | 44 | Max [9]: inactive |
| CCCCc1ncc(/C=C2/C(=O)N(CCCC)C(=O)N2CCCC)n1Cc1ccc(C(=O)OC)cc1 | -27 | 8.5 | 460 | – |
| CCCCc1ncc(/C=C2/C(=O)N(CCCC)C(=O)N2Cc2csc(N)n2)n1Cc1ccc(C(=O)O)cc1 | – | 0.6 | 2.9 | Max [1]: inactive |
| CCCCc1ncc(/C=C2/C(=O)NC(=O)N2CCCC)n1Cc1ccc(C(=O)O)cc1 | -17 | 2.8 | 28 | – |
| CCCCc1ncc(/C=C2/C(=O)N(CCCC)C(=O)N2Cc2ccno2)n1Cc1ccc(C(=O)OC)cc1 | -23 | 10.1 | > 100 | – |
| CCCCc1ncc(/C=C2/C(=O)NC(=O)N2Cc2ccc(Cl)cc2)n1Cc1ccc(C(=O)O)cc1 | -17 | 3 | 28 | – |
| CCCCc1ncc(/C=C2/C(=O)N(CCCC)C(=O)N2Cc2ccc(Cl)cc2)n1Cc1ccc(C(=O)OC)cc1 | -15 | 17.6 | 500 | – |
| CCCCc1ncc(/C=C2/C(=O)N(CCCC)C(=O)N2Cc2ccc(C)s2)n1Cc1ccc(C(=O)O)cc1 | -22 | 0.6 | 5.3 | – |
| CCCCc1ncc(/C=C2/C(=O)NC(=O)N2CCCC)n1Cc1ccc(-c2ccccc2-c2nn[nH]n2)cc1 | 0 | 1.4 | 40 | – |
| CCCCc1ncc(/C=C2/C(=O)NC(=O)N2CCCC)n1Cc1ccc(-c2nn[nH]n2)cc1 | 0 | 7.1 | 40 | – |
| CCCCc1ncc(/C=C2/C(=O)N(CCCC)C(=O)N2Cc2ccsc2)n1Cc1ccc(C(=O)O)cc1 | -42 | 0.9 | 10 | Max [10]: -28% |
| CCCCc1ncc(/C=C2/C(=O)NC(=O)N2Cc2cccs2)n1Cc1ccc(C(=O)O)cc1 | -21 | 2.3 | 18 | – |
| CCCCc1ncc(/C=C2/C(=O)N(CCCC)C(=O)N2Cc2ccoc2)n1Cc1ccc(C(=O)OC)cc1 | -22 | 8.3 | > 100 | – |
| CCCCc1ncc(/C=C2/C(=O)N(CCCC)C(=O)N2CCCC)n1Cc1ccc(C(=O)O)cc1 | -45 | 1.3 | 14 | Max [3]: -21% |
| CCCCc1ncc(/C=C2/C(=O)NC(=O)N2CCCC)n1Cc1ccc(NS(=O)(=O)C(F)(F)F)cc1 | -11 | 3.3 | 120 | – |
| CCCCc1ncc(/C=C2\C(=O)NC(=O)N2Cc2cccs2)n1Cc1ccc(C(=O)O)cc1 | – | 2.6 | – | Max [9]: inactive |
| CCCCc1ncc(/C=C2/C(=O)N(CCCC)C(=O)N2Cc2csc(C)c2)n1Cc1ccc(C(=O)O)cc1 | -23 | 0.7 | 9.2 | Max [10]: -28% |
| CCCCc1ncc(/C=C2/C(=O)N(CCCC)C(=O)N2Cc2ccccn2)n1Cc1ccc(C(=O)OC)cc1 | -20 | 5.8 | 490 | – |
